From patent EP3551232B1, “STABLE F-DOPA FORMULATIONS AND USES THEREOF” (priority 2016, dated 2018)

Tests used:
[1] = amount of F-DOPA dissolved in the formulation compositions; assay type: physicochemical; conditions: in the ND1, ND2 and ND3 compositions
Protocol: Optimum stability for F-DOPA in aqueous formulations is achieved by maintaining the pH at acidic values, by excluding oxygen and incorporating in the formula a chelating agent for metal ion initiators of free-radical oxidation reactions. […] In order to formulate F-DOPA at the optimum acidic pH range, the appropriate buffer was selected. Lactate buffer (1 mM, pH 5.0) was chosen to formulate the parenteral solution, firstly because lactic acid is currently used in intravenous solutions and is already present in commercial formulation and, secondly, because this solution has a pH value compatible with the direct infusion avoiding or minimizing the pain at the injection site. Finally, common methods for decelerating the initiation step require eliminating initiators and catalysts from the formulation. Metals ions can be sequestered by the use of chelators, such as EDTA, citric acid and tartaric acid. […] For comparison purposes the ND3 formulation, having the same commercially available formulation "master formula", was also prepared by solubilizing F-DOPA in an aqueous solution of 17.5 mM acetic acid (1.05 mg/mL, pH = 3.1). In order to mimic the commercial formulation, immediately before its use the pH of ND3 was adjusted to a higher pH value (measured pH = 7.2) by the addition of 100 µL per mL of a sterile solution of 1 M (84 mg/mL) sodium bicarbonate. […]

[2] = in situ FT-IR monitoring of F-DOPA degradation in aqueous solution; assay type: physicochemical
Protocol: Aimed at better understanding the nature of the F-DOPA degradation products, the progress of the oxidation of F-DOPA was investigated by in situ FT-IR experiments at pH 8.0 and 5.15 at 25 °C (Figure 3).
Nevertheless, an overlapping of the carbonyl and carboxyl groups in the range 1670-1650 cm^-1 of the postulated o-quinone derivatives (Scheme 1) should occur in aqueous solution. However, similar o-quinone species show typical bands at 1660, 1480 and 1380 cm^-1, and are known to be very unstable turning black the solution upon standing. […] Thus, in situ IR experiments confirm the long-time stability of F-DOPA in acidic conditions (pH < 5.15) and the high propensity to undergo degradation under basic conditions. The pH-rate profile was carried out in order to obtain kinetic data.
The degradation pathway and the progress of the F-DOPA oxidation in aqueous solutions were further investigated by in situ FT-IR experiments at pH 8.0 and 5.15 at 25 °C. The experiments were carried out using a Mettler-Toledo ReactIR 4000 and Ic15 instruments equipped with a diamond-tipped (DiComp®) probe (Spectra elaborated with ConcIR® software), monitoring the C=O stretching of the F-DOPA and following new absorptions likely related to oxidized products (Castagnolo, D. et al. 2015; Mansueto, R. et al 2014). In a Schlenk tube equipped with a stirring bar and the React-IR probe, a 0.02 M F-DOPA aqueous solution at pH 5.15 was introduced via syringe at room temperature. Reference spectra for the pure solvent and F-DOPA were collected separately before starting the experiments. The solution was stirred for 10 min, to verify the stability of the readout, and spectra collected every 30 sec. The solution was then stirred for 24 h and constantly monitored by IR spectroscopy.

[3] = enantioselective HPLC (optical stability, racemization); assay type: physicochemical; conditions: 4 mg/mL, 24 h at both 25 and 45 °C, sterile perfusion solution at pH 6.0
Protocol: The HPLC system used to check the chemical stability of F-DOPA, related to its possible oxidation and racemization, consisted of a Waters Associates (Milford, MA, USA) model 1515 equipped with an isocratic pump, a Waters 2487 UV-vis detector, and the Breeze Software to analyze the chromatographic data. The HPLC analysis were performed on a reverse-phase column (Agilent Zorbax SB-Aq C8; 150 x 4.6 mm - 5 µm) kept at room temperature using detection wavelengths of 200 and 280 nm. The mobile phase consisted of 6.9 g/L solution of sodium dihydrogen phosphate adjusted to pH 2.4 with a 4.8 g/L solution of phosphoric acid, and the flow rate was 1 mL/min. The standard injection volume was 20 µL. […] To evaluate optical stability of F-DOPA, chromatograms were recorded on a teicoplanin aglycone-based chiral stationary phase (250 × 4.6 mm, particle size 5 µm, pore size 8 nm) CHIROBIOTIC (ASTEC, Whippany, NJ, USA), by eluting with a mixture 80% acetonitrile and 20% water, at a flow rate of 1 mL/min and a temperature of 25 °C.

[4] = system: mouse skeletal muscle fibers; experiment: cell viability assay, fiber counting (mortality rate); conditions: Mus musculus
Protocol: (§1) Single fibers were isolated from the Flexor Digitorum Brevis (FDB) muscles dissected from male C57BL6 mice (N° of mice = 3). Isolated fibers were obtained by incubating the FDB muscles with Dulbecco's modified Eagle's medium (DMEM+) solution composed by IX antibiotics (1%), L-glutamine (1%), FBS (10%) (EuroClone, S.p.A. Milan, Italy) enriched with 0.3 mg/ml collagenase type XI-S (Sigma Chemical Co.).
(§2) For "in vitro" cell viability tests, the F-DOPA powder was directly solubilized in the complete cell culture medium (DMEM+). Stock solutions of ND1, ND2 and ND3 formulations were prepared at the concentration of 10 mg/ml. Microliter amounts of the stock solutions were then added to DMEM as needed, to obtain the final concentrations.
(§3) The fibers were plated, counted under a microscope, and incubated for 3h with increasing concentrations of F-DOPA, ND1, ND2 and ND3 formulations and an imaging analysis was then performed. At the end of the incubation time, the cytotoxicity expressed as mortality rate with respect to the control condition was evaluated by counting the fibers before and after the incubation period.
(§4) The mortality rate of the fibers and cells was calculated by the following equation: [(Ntreated/NCTRL)×100]−100 [formula] where Ntreated is the number of the treated cells and NCTRL is the number of untreated cells.
(§5) The following three parametric logistic function was used to fit the concentrationmortality data of different F-DOPA formulations: percentage change of the mortality rate(%) = Emax ((1+EC50/DOSE))^slope [formula] where Emax, is the maximal drug effect; EC50, is the concentration needed to cause the 50% percent change of the maximal effect; DOSE, is the applied concentration; slope, is the hill slope of the curve (SIGMAPlot 10.0, Systat Software, Inc.).

[5] = as above; conditions: male, C57BL6, mouse
Protocol: as §1, §2, §3, §4, §5

[6] = UV-Vis absorbance stability in sterile physiological solution; assay type: physicochemical
From the text: This behavior was further supported by monitoring the change in UV-Vis absorbance of a pH 6.4 sterile physiological solution containing F-DOPA. […]

For `N[C@@H](Cc1cc(O)c(O)cc1F)C(=O)O` [F-DOPA, (2S)-2-Amino-3-(6-fluoro-3,4-dihydroxyphenyl)propanoic acid], the “F-DOPA dissolved per mL” value [1] was 10 mg/mL, the “loss of vC=O absorbance” value ([2]; buffer at pH = 8.0, within 2 h, 25 °C) was 10% and the “additional peaks in the range 1800-1200 cm^-1 (FT-IR)” value ([2]; pH 5.15, after 16 h, 25 °C) was “no additional peaks”. The “appearance of the transparent aqueous solution” value ([2]; stirring at pH = 8.0 for 24 h) was “turned to black”, the racemization [3] was “no racemization occurs” and the Emax [4] was 100%. For the same compound, the EC50 ([4]; 3 h) was 185 µM, the mortality at 3 h, 0.02 mg/ml [5] was less than 15% and the mortality at 3 h, 0.05 mg/ml [5] was greater than 50%. The “decrease in F-DOPA initial concentration” value ([6]; pH 6.4, degassed sterile 0.9% NaCl, 1 to 4 mg/mL, 25 or 45 °C, 6 h, absorbance at 298 nm) was “less than 5%” and the colour of sample ([6]; pH 6.4, sterile 0.9% NaCl, after 24 h incubation) was “pale pink color”.
